Values quoted from earlier work in article PMC8198792, “Prediction of Anticancer Peptides with High Efficacy and Low Toxicity by Hybrid Model Based on 3D Structure of Peptides” (International Journal of Molecular Sciences, 2021).
Read-outs that look alike come from different tables or passages of the source.

Test system: cancer cell lines
Set-up: method as in 6 sources, ref CancerPPD [45] and SATPdb ||| ref CancerPPD/SATPdb ||| ref CancerPPD, SATPdb, Swissprot (PDB) ||| ref CancerPPD/SATPdb/Swissprot(PDB) ||| ref CancerPPD / SATPdb ||| ...
Details: cited from earlier work
Description: Supplement ijms-22-05630-s001.zip/ACPs(seguence).xlsx, sheet "D1" | column: Activity || Supplement ijms-22-05630-s001.zip/ACPs(seguence).xlsx, sheet "D2" | column: Activity || Supplement ijms-22-05630-s001.zip/ACPs(seguence).xlsx, sheet "D3" | column: Activity || (+ 2 further places)

[1] = ACPs dataset D2 (supplement ACPs(seguence).xlsx, sheet D2), dataset label 1/0 (ACP / non-ACP), entries identified by Swissprot(PDB ID), ref CancerPPD/SATPdb/Swissprot(PDB)
[2] = ACPs dataset D5, sheet "D5", label 1 = ACP, 0 = non-ACP, ref CancerPPD [45] and SATPdb
[3] = ACPs dataset D3 (supplement sheet "D3"), 1 = ACP, 0 = non-ACP, ref CancerPPD [45] and SATPdb
[4] = ACPs dataset D4 (sheet "D4"), label 1 = ACP, experimentally validated ACPs, ref CancerPPD [45] and SATPdb
[5] = ACPs dataset D5 (sheet "D5"), label 1 = ACP (positive set), sequences with CancerPPD/SATPdb ID, ref CancerPPD, SATPdb
[6] = ACPs dataset D3 (sheet "D3"), label 1 = ACP, 0 = non-ACP, ref CancerPPD/SATPdb
[7] = ACPs dataset D4 (sheet "D4"), label 1 = ACP, 0 = non-ACP, ref CancerPPD / SATPdb
[8] = ACPs dataset D1, label 1 = ACP, 0 = non-ACP (non-anticancer AMPs from SATPdb), ref CancerPPD/SATPdb
[9] = ACPs dataset D4 (sheet "D4"), label 1 = ACP (CancerPPD ID), 0 = non-ACP (non-anticancer AMP, SATPdb ID), ref CancerPPD [45] and SATPdb
[10] = ACPs dataset D5 (sheet "D5"), label 1 = ACP (positive set), 0 = non-ACP (negative set), ref CancerPPD [45] and SATPdb
[11] = ACPs dataset D1, 1 = ACP (positive), 0 = non-ACP (negative), label taken from databases, ref CancerPPD [45] and SATPdb
[12] = ACPs dataset sheet D2, 1 = ACP (CancerPPD/SATPdb ID), 0 = non-ACP (Swissprot/PDB ID), ref CancerPPD, SATPdb, Swissprot (PDB)

| Substance | Activity [4] | Activity [5] | Activity [11] | Activity [12] | other results |
| --- | --- | --- | --- | --- | --- |
| MAELQERIRHFWKESRRAFLVTKKPNWATYKRAAKITGLGIILIGLIGMLIRIVGILILGG [3MP7 X-ray 2.90 B 1-61] | – | – | – | – | Activity [1]: 0; Activity [2]: 0 |
| EECGPNEVFNTCGSACAPTCAQPKTRICTMQCRIGCQCQEGFLRNGEGACVLPENC [1CCV NMR - A 1-56] | – | – | – | – | Activity [1]: 0; Activity [2]: 0 |
| ALWKDILKNVGKAAGKAVLNTVTDMVNQ [compound 1707] | 1 | 1 | – | – | Activity [3]: 1 |
| RGGRLCYARRRFAVCVGR [satpdb14374] | – | – | – | – | Activity [6]: 0; Activity [7]: 0; Activity [2]: 0 |
| GVLDTFKDVAIGVAKGAGTGVLKALLCKLDKSC [satpdb13223] | – | – | – | – | Activity [8]: 0; Activity [7]: 0 |
| GIGKFLKKAKKFAKAFVKIINN [compound 1117] | – | – | – | – | Activity [3]: 1; Activity [9]: 1; Activity [10]: 1 |
| GLLGLLGSVVSHVVPAIVGHF [compound 4416] | 1 | 1 | 1 | 1 | – |
| ENFAGGCATGYLRTADGRCKPTF [1HRL NMR - A 1-23] | – | – | – | 0 | Activity [10]: 0 |
| GIFSLFKAGAKFFGKHLLKQAGKAGAEHLACKATNQC [satpdb10483] | – | – | 0 | – | Activity [9]: 0 |
| MSGELLNAALLSFGLIFVGWALGALLLKIQGAEE [4OGQ X-ray 2.50，F，1-34] | – | – | – | 0 | Activity [10]: 0 |
| AEDCVGRKACTREWYPVCGSDGVTYSNPCNFSAQQEQCDPNITIAHMGEC [2N71 NMR - A 1-50] | – | – | – | – | Activity [1]: 0; Activity [10]: 0 |
| GSEGPLKPGARIFSFDGKDVLRHPT [compound 4204] | 1 | 1 | 1 | 1 | – |
| FLPIVGRLISGLL [satpdb10939] | – | – | – | – | Activity [3]: 0; Activity [7]: 0; Activity [2]: 0 |
| LVRGCWTKSYPPKPCFVR [satpdb11395] | – | – | – | – | Activity [8]: 0; Activity [9]: 0 |
| ILGKIWKIKKLF [satpdb10262] | – | – | 0 | – | Activity [9]: 0 |
| MRLKKRFKKFFISRKEYEKIEEILDIGLAKAMEETKDDELLTYDEIKELLGDK [3BPQ X-ray 2.20,A/C,1-52] | – | – | – | – | Activity [1]: 0; Activity [2]: 0 |
| GIFSLIKGAAKLITKTVAKEAGKTGLELMACKVTNQC [satpdb12414] | – | – | – | – | Activity [8]: 0; Activity [9]: 0 |
| LVPRGSRAGSPSGGPFCALARQPLTGARLMSGLFFALHET [satpdb15805] | 1 | 1 | 1 | 1 | – |
| GKWMSLLKHWLK [compound 3656] | – | – | – | – | Activity [3]: 1; Activity [9]: 1; Activity [10]: 1 |
| GFKDLLKGAAKALVKTVLF [compound 4388] | 1 | 1 | 1 | 1 | – |

| Substance | Activity [4] | Activity [5] | Activity [11] | Activity [12] | other results |
| --- | --- | --- | --- | --- | --- |
| GFSPNLPGKGLRIS [satpdb13263] | – | – | – | – | Activity [8]: 0; Activity [7]: 0 |
| IFGAIWKGISSLL [satpdb10136] | – | – | 0 | – | Activity [9]: 0 |
| VDENAEDTHGLCGEKTCSPAQVCLNNECACTAIRCMIFCPNGFKVDENGCEYPCTCA [3BG4 X-ray 2.50 D 1-57] | – | – | – | – | Activity [1]: 0; Activity [2]: 0 |
| GFGMALOLLOOVL [compound 3597] | – | – | – | – | Activity [3]: 1; Activity [9]: 1; Activity [10]: 1 |
| KFCEKPSGTWSGVCGNSGACKDQCIRLEGAKHGSCNYKLPAHRCICYYEC [satpdb13047] | – | – | – | – | Activity [8]: 0; Activity [7]: 0 |
| EGVRNHVTCRINRGFCVPIRCPGRTRQIGTCFGPRIKCCRSW [satpdb13124] | – | – | – | – | Activity [8]: 0; Activity [7]: 0 |
| RRPKGRGKRRREKQRPTDCHLCGDAVPRR [satpdb17014] | 1 | 1 | 1 | 1 | – |
| CSNLSTCVLGKLSQELHKLQTYPRTDVGAGTP [1BKU NMR - A 1-32] | – | – | – | 0 | Activity [10]: 0 |
| MKVRVDADACIGCGVCENLCPDVFQLGDDGKAKVLQPETDLPCAKDAADSCPTGAISVEE [1VJW X-ray 1.75 A 1-60] | – | – | – | – | Activity [1]: 0; Activity [2]: 0 |
| LRVRLASHLRKLRKRLLRDADDLQKRLAVY [compound 1665] | 1 | 1 | 1 | 1 | – |
| GASCGETCFTGICFTAGCSCNPWPTCTRN [compound 4369] | 1 | 1 | 1 | 1 | – |
| LGQSAASAHHAYIVLAIENSFMTASKKK [compound 4207] | 1 | 1 | 1 | 1 | – |
| GVWSTILGGLKKFAKGGLDAIVNPK [satpdb10425] | – | – | 0 | – | Activity [9]: 0 |
| ATCDLLSPFKVGHAACAAHCIARGKRGGWCDKRAVCNCRK [satpdb11323] | – | – | 0 | – | Activity [9]: 0 |
| RRWCFRVCYR GFCYRKCR [1RKK NMR - A 1-18] | – | – | – | 0 | Activity [10]: 0 |
| KAFDITYVRLKF [satpdb20842] | 1 | 1 | 1 | 1 | – |
| VVGSPSAQDEASPL [satpdb16227] | 1 | 1 | 1 | 1 | – |
| DFKLFAVTIKYR [satpdb15826] | 1 | 1 | 1 | 1 | – |
| GLLKRIKTLL [2MJQ NMR - A 1-10] | – | – | – | 0 | Activity [10]: 0 |
| GIPCAESCVWIPCTVTALLGCSCSNKVCYN [satpdb12637] | – | – | – | – | Activity [8]: 0; Activity [9]: 0 |

| Substance | Activity [4] | Activity [5] | Activity [11] | Activity [12] | other results |
| --- | --- | --- | --- | --- | --- |
| SPWSSCSVTCGDGVITRIR [satpdb28070] | 1 | 1 | 1 | 1 | – |
| RGDLLRHVVKILEKYL [compound 1672] | 1 | 1 | 1 | 1 | – |
| GIGGVLLSAGKAALKGLAKVLAEKYAN [compound 4400] | 1 | 1 | 1 | 1 | – |
| FAKKLAKLAKKLAKLAL [compound 1787] | 1 | 1 | – | – | Activity [3]: 1 |
| VOLOfPVOLfP [satpdb12074] | – | – | – | – | Activity [6]: 0; Activity [7]: 0; Activity [2]: 0 |
| MKVRSSVKKMCDNCKVVRRHGRVLVICSNVKHKQRQG [2ZJR X-ray 2.91,4,1-37] | – | – | – | – | Activity [1]: 0; Activity [10]: 0 |
| QRACPRILKKCRRDSDCPGECICKENGYCG [2LJS NMR - A 1-30] | – | – | – | 0 | Activity [10]: 0 |
| GLPVCGETCTLGTCYTQGCTCSWPICKRN [satpdb13318] | – | – | – | – | Activity [8]: 0; Activity [7]: 0 |
| HFLLTLKNLAKKIL [satpdb10120] | – | – | – | – | Activity [3]: 0; Activity [7]: 0; Activity [2]: 0 |
| KDCKRESNTFPGICITKPPCRKACIREKFTDGHCSKILRRCLCTKPC [5KK4 X-ray 1.70 A/B/C/D/E/F 1-47] | – | – | – | – | Activity [1]: 0; Activity [10]: 0 |
| ALWKNMLKGIGKLAGQAALGAVKTLVGA [compound 1706] | 1 | 1 | 1 | 1 | – |
| KNWKK-Aib-LKK-Aib-IK-Aib-VK [compound 3503] | – | – | – | – | Activity [3]: 1; Activity [9]: 1; Activity [10]: 1 |
| GLFDVIKKVASVIGGL [compound 1421] | – | – | – | – | Activity [3]: 1; Activity [9]: 1; Activity [10]: 1 |
| FLWWLFKWAWK [compound 1728] | 1 | 1 | 1 | 1 | Activity [3]: 1 |
| CSTNTFSLSDYWGNKGNWCTATHECMSWCK [satpdb10487] | – | – | 0 | – | Activity [9]: 0 |
| KKVCACPKILKPVCGSDGRTYANSCIARCNGVSIKSEGSCPTGILN [1LDT X-ray 1.90,L,1-46] | – | – | – | – | Activity [1]: 0; Activity [10]: 0 |
| ILPILSLIGGLLGK [compound 4439] | 1 | 1 | 1 | 1 | – |
| GGLRSLGRKILRAWKKYGPIIVPIIRIG [compound 4394] | 1 | 1 | 1 | 1 | – |
